From US6372501B1, “Glucose responsive β-cell line” (Aberdeen University, priority 1997, dated 2002)
Entries after “also recorded” stand apart in the source; their conditions may differ. Like-named read-outs stand apart in the source and are kept apart here.

Columns and labels:
[1] = tested on: voltage-gated Ca2+ channels; assay type: cell-based, human
[2] = tested on: voltage-gated Ca2+ channels; assay type: cell-based, human; remark: listed apart in the source
[3] = tested on: recombinant KATP channels; test: Patch-clamp recording of recombinant KATP channels in NISK 9 β-cells; assay type: cell-based, human; conditions: for effect of nucleotides on recombinant KATP channels: ADP in the presence of inhibitory concentration of ATP; for effect on K+ channel in inside-out patch: NISK 9 β-cell, same inside-out patch, ATP 500 μM, diazoxide 500 μM in the presence of ATP, tolbutamide 250 μM, efaroxan 200 μM; for effect on recombinant KATP channels: NISK 9 β-cells, cell attached (n=4) and inside-out patch (n=5)
Procedure: In panel A, all data come from the same inside-out patch recording. […] When recorded using symmetrical 140 mM KCl-rich solutions on either side of the cell membrane the channel has an inwardly-retifying relationship, with an estimated inward current conductance of approximately 70 pS. See also claim 11 hereinafter.
Panels A and B were obtained under the same conditions as illustrated in FIG. 9. […] In panel B, tolbutamide is shown to inhibit diazoxide-activated KATP channels in an inside-out patch; note that when this configuration is used, ATP must be added to the inside face of the cell membrane to facilitate diazoxide-induced K^+ channel activation. Mean data from several experiments are also illustrated in panels A and B. See also claim 11 hereinafter.
All data comes from the same membrane recording: an inside-out patch record obtained from a NISK 9 β-cell. […] Closure of KATP channels was also associated with a rise in the cytosolic concentration ([Ca^2+]1), not shown. Thus, the Δ[Ca^2+]1 for tolbutamide was found, on average to be 158+/−24 nM (n=22), and for efaroxan 195+/−40 nM (n=12). See also claim 11 hereinafter.
(§1) All data were obtained from either primary cultured human islet cells (control) or from NES 2Y β-cells(transfected and untransfected) by patch-clamp techniques.
(§2) Standard KCl- and NaCl-rich solutions were used in all electophysiology recordings to provide quasi-physiological cationic gradients. Procedures used for data collection and analysis were described previously.

untransfected cells = conditions: 800 μg/ml G418 (data not shown)
NES 2Y β-cells [4] = test: Ca2+ microfluorimetry (fura-2) in NES 2Y β-cells; assay type: cell-based, human; conditions: KCl 40 mM, tolbutamide 0.2 mM, glucose 20 mM
Procedure: (§3) Ca^2+ microfluorimetry experiments were performed with fura-2-loaded cells and intact islets as described previously.

NISK 9 β-cells [5] = test: Ca2+ microfluorimetry (fura-2) in NISK 9 β-cells; assay type: cell-based, human; conditions: for effect on cytosolic Ca2+ ([Ca2+]i): glucose n=8, n=22, KCl 40 mM n=22; for Δ[Ca2+]i, rise in the cytosolic concentration: average, tolbutamide n=22, efaroxan n=12
Procedure: as §3

NES 2Y β-cells [6] = test: Insulin release (radioimmunoassay) from NES 2Y β-cells; assay type: cell-based, human; conditions: 40 mM KCl, 0.2 mM tolbutamide, glucose
Procedure: (§4) Insulin was measured by radioimmunoassay using an anti-human insulin antibody (Linco, UK) and ^125I-human insulin, as previously described.

NISK 9 β-cells [7] = test: Insulin release (radioimmunoassay) from NISK 9 β-cells; assay type: cell-based, human; conditions: glucose 0.5-16 mM, KCl 40 mM, tolbutamide 0.2 mM
Procedure: NISK 9 cells (NES 2Y cells stably transfected with IUF1, Sur1 and Kir 6.2) were preincubated for 180 minutes in media containing 0.5 mM glucose. The media was then replaced with that containing the indicated concentrations of glucose, and the media samples assayed for insulin by radioimmunoassay after a further 60 minutes incubation. The data are presentative of two experiments, and show the mean +/− standard deviation of 6 separate determinations. The NISK9 cell line is shown to secrete insulin in response to changes in glucose in the physiological concentration range.
as §4

KATP channels [8] = target: T1, KATP channels (Homo sapiens, UniProt Q09428+Q14654); test: Patch-clamp recording of KATP channels in control human β-cells; assay type: cell-based; conditions: cell attached configuration, diazoxide 500 μM, tolbutamide 200 μM
T1 construct: primary cultured human islet cells (control); endogenous in cells; host or cells: primary cultured human islet beta-cells
Source text: (In the record shown, the maximum number of coincident open ion channel events is increased from 3 to 30). Under the same experimental conditions none of these agents had any action on ion channel events in the NES 2Y β-cells. Similar data were obtained in 4 (panel A) and 18 (panel B) other control experiments, and in a total of N=10 (panel A) and n=10 (panel B) NES 2Y β-cells experiments. Note that upward deflections represent outward current events, and that the broken lines indicate the zero current level which corresponds to closure of all K^+ channels. The same ionic gradients were used for each of the experimental protocols described, and all data are plotted to the same scales in each panel.
as §1, §2

KATP channels [9] = test: Patch-clamp recording of KATP channels in NES 2Y β-cells; assay type: cell-based, human; conditions: intact cells (diazoxide 0.5 mM) or cell-free patches (cocktail)
[10] = tested on: voltage-gated Na+ channels; assay type: cell-based, human
[11] = tested on: voltage-gated Na+ channels; assay type: cell-based, human; remark: listed apart in the source

T1 sequence (Q09428 whole entry): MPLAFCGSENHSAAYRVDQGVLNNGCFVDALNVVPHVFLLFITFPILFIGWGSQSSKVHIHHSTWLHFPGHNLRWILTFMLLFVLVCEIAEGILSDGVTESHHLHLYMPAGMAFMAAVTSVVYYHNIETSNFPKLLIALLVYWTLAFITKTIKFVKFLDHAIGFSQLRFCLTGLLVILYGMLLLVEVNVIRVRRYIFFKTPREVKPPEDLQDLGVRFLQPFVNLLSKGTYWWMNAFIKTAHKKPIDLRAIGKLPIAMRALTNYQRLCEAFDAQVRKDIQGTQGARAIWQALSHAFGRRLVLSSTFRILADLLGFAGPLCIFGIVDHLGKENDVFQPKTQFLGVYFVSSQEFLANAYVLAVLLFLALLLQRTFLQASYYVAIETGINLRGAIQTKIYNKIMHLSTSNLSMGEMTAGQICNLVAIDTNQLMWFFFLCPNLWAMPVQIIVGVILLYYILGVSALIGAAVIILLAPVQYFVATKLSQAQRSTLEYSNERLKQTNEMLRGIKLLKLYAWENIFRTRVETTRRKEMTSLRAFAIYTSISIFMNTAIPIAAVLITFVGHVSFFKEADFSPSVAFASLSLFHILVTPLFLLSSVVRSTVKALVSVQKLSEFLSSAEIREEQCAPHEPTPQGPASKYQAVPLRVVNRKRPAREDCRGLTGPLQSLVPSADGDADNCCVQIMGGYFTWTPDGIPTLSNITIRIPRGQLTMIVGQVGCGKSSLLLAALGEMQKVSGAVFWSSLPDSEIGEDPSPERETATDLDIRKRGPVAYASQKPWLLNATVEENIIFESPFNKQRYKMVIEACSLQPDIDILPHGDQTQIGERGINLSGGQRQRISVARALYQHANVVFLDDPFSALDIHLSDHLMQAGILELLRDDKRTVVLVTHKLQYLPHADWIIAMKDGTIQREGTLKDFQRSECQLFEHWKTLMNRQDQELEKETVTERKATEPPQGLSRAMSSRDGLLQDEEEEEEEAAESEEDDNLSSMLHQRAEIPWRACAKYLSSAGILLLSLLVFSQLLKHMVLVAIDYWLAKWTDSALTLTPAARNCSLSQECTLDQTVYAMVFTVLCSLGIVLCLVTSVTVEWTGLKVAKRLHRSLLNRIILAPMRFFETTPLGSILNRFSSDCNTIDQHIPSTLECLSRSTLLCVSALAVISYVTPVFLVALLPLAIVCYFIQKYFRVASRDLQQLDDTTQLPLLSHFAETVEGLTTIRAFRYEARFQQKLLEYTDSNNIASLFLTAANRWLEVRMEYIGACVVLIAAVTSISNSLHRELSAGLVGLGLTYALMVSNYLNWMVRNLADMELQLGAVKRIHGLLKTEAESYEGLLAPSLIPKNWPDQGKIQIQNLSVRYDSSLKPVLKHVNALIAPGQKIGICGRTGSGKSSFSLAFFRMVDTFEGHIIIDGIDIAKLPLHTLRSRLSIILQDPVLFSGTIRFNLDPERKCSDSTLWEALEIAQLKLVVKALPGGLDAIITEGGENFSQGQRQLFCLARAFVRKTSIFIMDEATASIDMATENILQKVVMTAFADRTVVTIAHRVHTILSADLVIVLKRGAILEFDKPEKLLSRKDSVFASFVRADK
T1 sequence (Q14654 whole entry): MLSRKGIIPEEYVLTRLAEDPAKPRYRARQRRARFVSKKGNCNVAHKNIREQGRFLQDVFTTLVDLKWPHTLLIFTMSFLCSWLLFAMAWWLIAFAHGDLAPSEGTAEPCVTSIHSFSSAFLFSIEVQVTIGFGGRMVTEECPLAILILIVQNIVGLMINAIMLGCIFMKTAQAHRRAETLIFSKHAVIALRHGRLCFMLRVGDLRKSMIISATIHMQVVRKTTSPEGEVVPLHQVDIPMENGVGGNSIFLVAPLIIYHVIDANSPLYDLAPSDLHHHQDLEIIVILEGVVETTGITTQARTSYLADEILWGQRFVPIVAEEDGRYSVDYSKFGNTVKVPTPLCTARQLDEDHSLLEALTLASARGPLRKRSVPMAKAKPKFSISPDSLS

SMILES: COC(=O)C1=C(C)NC(C)=C([N+](=O)[O-])C1c1ccccc1C(F)(F)F (racemic) [(+/−) BAY K-8644]
- effect on Ttx-insensitive currents [1]: activation
- effect on Ttx-insensitive currents [2]: activation

SMILES: Nc1ncnc2c1ncn2[C@@H]1O[C@H](COP(=O)(O)OP(=O)(O)O)[C@@H](O)[C@H]1O [ADP]
- effect of nucleotides on recombinant KATP channels ([3]; NISK β-cells, inside-out patch): activated; also recorded: reversible recovery from closure

SMILES: Nc1ncnc2c1ncn2[C@@H]1O[C@H](COP(=O)(O)OP(=O)(O)OP(=O)(O)O)[C@@H](O)[C@H]1O [ATP]
- effect on K+ channel in inside-out patch [3]: channel block
- IC50 ([3]; NISK β-cells, inside-out patch, ATP 0.005-1 mM, n=4, read-out: 50% inhibition of KATP channels): 5 to 10 µM
- effect of nucleotides on recombinant KATP channels ([3]; NISK β-cells, inside-out patch): inhibition of channels

SMILES: CN[C@@H]1[C@@H](O)[C@@H](O[C@@H]2[C@@H](O)[C@H](O[C@H]3O[C@H]([C@@H](C)O)[C@@H](O)[C@H](O)[C@H]3N)[C@@H](N)C[C@H]2N)OC[C@]1(C)O [G418]
- time to toxic cell death (untransfected cells): ≤ 12 h

SMILES: [Cl-].[K+] [KCl]
- effect on cytosolic Ca2+ ([Ca2+]i) (NES 2Y β-cells [4]): no elevation of [Ca^2+]i
- effect on cytosolic Ca2+ ([Ca2+]i) (NISK 9 β-cells [5]): raise [Ca^2+]i
- insulin release (NES 2Y β-cells [6]): fail to release insulin
- insulin secretion (NISK 9 β-cells [7]): regulated insulin secretion

SMILES: CC1=NS(=O)(=O)c2cc(Cl)ccc2N1 [diazoxide]
- effect on spontaneously open KATP channels (KATP channels [8]): activated
- effect on K+ channel in inside-out patch [3]: activation
- effect on recombinant KATP channels [3]: activated
- effect on the glucose-induced rise in [Ca2+]i (NISK 9 β-cells [5]; n=5): inhibited
- effect on KATP channel activity / ion channel events (KATP channels [9]): no response

SMILES: CCC1(C2=NCCN2)Cc2ccccc2O1 (stereo not drawn) [efaroxan]
- effect on K+ channel in inside-out patch [3]: channel inhibition
- KATP channel activity remaining, % of the immediate control value ([3]; isolated patches, 0.2 mM efaroxan, n=3): 8.5±5.6%
- Δ[Ca2+]i, rise in the cytosolic concentration (NISK 9 β-cells [5]): 195 ± 40 nM

SMILES: NC1=N[C@H](O)[C@H]2[C@H]3O[C@]4(O)O[C@@H]([C@@H](O)[C@@]2(N1)[C@@H]4O)[C@]3(O)CO [tetrodotoxin]
- effect on voltage-gated currents [10]: inhibition
- effect on voltage-gated currents [11]: inhibition

SMILES: CCCCNC(=O)NS(=O)(=O)c1ccc(C)cc1 [tolbutamide]
- effect on spontaneously open KATP channels (KATP channels [8]): inhibited
- effect on K+ channel in inside-out patch [3]: channel inhibition
- effect on recombinant KATP channels [3]: inhibited
- KATP channel activity remaining, % of the control value ([3]; isolated patches, 0.25 mM tolbutamide, n=3): 40.8±8.5%
- effect on cytosolic Ca2+ ([Ca2+]i) (NES 2Y β-cells [4]): no elevation of [Ca^2+]i
- Δ[Ca2+]i, rise in the cytosolic concentration (NISK 9 β-cells [5]): 158 ± 24 nM
- effect on cytosolic Ca2+ ([Ca2+]i) (NISK 9 β-cells [5]): raise [Ca^2+]i
- insulin release (NES 2Y β-cells [6]): fail to release insulin
- insulin secretion (NISK 9 β-cells [7]): regulated insulin secretion
